According to US12030904B2 (priority 2020, dated 2024):
Where two headings read alike, the source gives them in different places.

How the values were obtained:
[1] = tested on: Recombinant Respiratory Syncytial virus strain A2 containing the firefly luciferase reporter (RSV-Fluc); assay: microbe, parasite or virus in culture; assay type: cell-based; settings: human respiratory syncytial virus, NHBE
SARS-CoV-2 = assay: microbe, parasite or virus in culture; assay type: cell-based
MT4 cytotoxicity (CC50) = settings: human, MT4 cells
[2] = Severe acute respiratory syndrome coronavirus 2, read-out: SARS EC50
[3] = 72 h, read-out: RSV-Fluc EC50 (NHBE), NHBE cells, three days, Table 2

Row | SMILES | EC50 ([1]; read-out: RSV EC50, Table 2a) | EC50 (SARS-CoV-2; [2]) | CC50 (MT4 cytotoxicity (CC50); MT4 CC50, Table 2a) | EC50 ([1]; read-out: RSV EC50, Table 4) | CC50 (MT4 cytotoxicity (CC50); MT4 CC50, Table 4) | EC50 [1, 3] | EC50 ([1]; 72 h, read-out: RSV-Fluc EC50 (NHBE), NHBE cells, three days, Table 1) | EC50 (SARS-CoV-2; Severe acute respiratory syndrome coronavirus 2, 48 h, read-out: SARS-CoV-2 EC50) | CC50 (MT4 cytotoxicity (CC50); MT4 CC50, Table 1a)
1 | CCCCCCCCCCCCCCCCCCOC[C@H](COP(=O)(O)OC[C@H]1O[C@@](C#N)(c2ccc3c(N)ncnn23)[C@H](O)[C@@H]1O)OCc1ccc(C#N)c(OC)c1 [Example 54, ((2R,3S,4R,5R)-5-(4-Aminopyrrolo[2,1-f][1,2,4]triazin-7-yl)-5-cyano-3,4-dihydroxytetrahydrofuran-2-yl)methyl ((R)-2-((4-cyano-3-methoxybenzyl)oxy)-3-(octadecyloxy)propyl) hydrogen phosphate] | 19 nM | 1630 nM | 289 nM |  |  |  |  |  | 
2 | CCCCCCCCCCCCCCCCCCOC[C@H](COP(=O)(O)OC[C@H]1O[C@@](C#N)(c2ccc3c(N)ncnn23)[C@H](O)[C@@H]1O)Oc1cnc(C#N)cn1 [Example 77, ((2R,3S,4R,5R)-5-(4-aminopyrrolo[2,1-f][1,2,4]triazin-7-yl)-5-cyano-3,4-dihydroxytetrahydrofuran-2-yl)methyl ((R)-2-((5-cyanopyrazin-2-yl)oxy)-3-(octadecyloxy)propyl) hydrogen phosphate] |  | 31 nM |  | 7 nM | 196 nM |  |  |  | 
3 | CCCCCCCCCCCCCCCOC[C@H](COP(=O)(O)OC[C@H]1O[C@@](C#N)(c2ccc3c(N)ncnn23)[C@H](O)[C@@H]1O)OCc1ccc(C#N)cc1F [Example 102, [(2R,3S,4R,5R)-5-(4-aminopyrrolo[2,1-f][1,2,4]triazin-7-yl)-5-cyano-3,4-dihydroxy-tetrahydrofuran-2-yl]methyl [(2R)-2-[(4-cyano-2-fluoro-phenyl)methoxy]-3-pentadecoxy-propyl] hydrogen phosphate] |  | 120 nM |  | 21 nM | 4500 nM |  |  |  | 
4 | CCCCCCCCCCCCCCCCCCOC[C@H](COP(=O)(O)OC[C@H]1O[C@@](C#N)(c2ccc3c(N)ncnn23)[C@H](O)[C@@H]1O)OCc1cccc(C#N)c1 [Example 39, ((2R,3S,4R,5R)-5-(4-aminopyrrolo[2,1-f][1,2,4]triazin-7-yl)-5-cyano-3,4-dihydroxytetrahydrofuran-2-yl)methyl ((R)-2-((3-cyanobenzyl)oxy)-3-(octadecyloxy)propyl) hydrogen phosphate] | 27 nM | 284 nM | 348 nM |  |  | 27 nM |  |  | 
5 | CCCCCCCCCCCCCCCCCOC[C@H](COP(=O)(O)OC[C@H]1O[C@@](C#N)(c2ccc3c(N)ncnn23)[C@H](O)[C@@H]1O)OCc1ccccc1 [Example 6, ((2R,3S,4R,5R)-5-(4-aminopyrrolo[2,1-f][1,2,4]triazin-7-yl)-5-cyano-3,4-dihydroxytetrahydrofuran-2-yl)methyl ((R)-2-(benzyloxy)-3-(heptadecyloxy)propyl) hydrogen phosphate] |  |  |  |  |  |  | 80 nM | 950 nM | 4150 nM
6 | CCCCCCCC/C=C/CCCCCCCCOC[C@H](COP(=O)(O)OC[C@H]1O[C@@](C#N)(c2ccc3c(N)ncnn23)[C@H](O)[C@@H]1O)OCc1ccc(C#N)cc1F [Example 127, ((2R,3S,4R,5R)-5-(4-aminopyrrolo[2,1-f][1,2,4]triazin-7-yl)-5-cyano-3,4-dihydroxytetrahydrofuran-2-yl)methyl ((R)-2-((4-cyano-2-fluorobenzyl)oxy)-3-(((E)-octadec-9-en-1-yl)oxy)propyl) hydrogen phosphate] |  | 140 nM |  | 28 nM | 3910 nM |  |  |  | 
7 | CCCCCCCCCCCCCCCCCCOC[C@H](COP(=O)(O)OC[C@H]1O[C@@](C#N)(c2ccc3c(N)ncnn23)[C@H](O)[C@@H]1O)OC(C)C [Example 47, ((2R,3S,4R,5R)-5-(4-aminopyrrolo[2,1-f][1,2,4]triazin-7-yl)-5-cyano-3,4-dihydroxytetrahydrofuran-2-yl)methyl ((R)-2-isopropoxy-3-(octadecyloxy)propyl) hydrogen phosphate] | 297 nM | 1080 nM | 7870 nM |  |  | 300 nM |  |  | 
8 | CCCCCCCCCCCCCCCCCCOC[C@H](COP(=O)(O)OC[C@H]1O[C@@](C#N)(c2ccc3c(N)ncnn23)[C@H](O)[C@@H]1O)OCc1ccc(C(F)(F)F)nc1 [Example 123, [(2R,3S,4R,5R)-5-(4-Aminopyrrolo[2,1-f][1,2,4]triazin-7-yl)-5-cyano-3,4-dihydroxy-tetrahydrofuran-2-yl]methyl [(2R)-3-octadecoxy-2-[[6-(trifluoromethyl)-3-pyridyl]methoxy]propyl] hydrogen phosphate] |  | 340 nM |  | 55 nM | 1040 nM |  |  |  | 
9 | CCCCCCCCCCCCCCCCCCOC[C@@H](COP(=O)(O)OC[C@H]1O[C@@](C#N)(c2ccc3c(N)ncnn23)[C@H](O)[C@@H]1O)OCc1cc(F)cc(C#N)c1 [Example 93, ((2R,3S,4R,5R)-5-(4-aminopyrrolo[2,1-f][1,2,4]triazin-7-yl)-5-cyano-3,4-dihydroxytetrahydrofuran-2-yl)methyl ((S)-2-((3-cyano-5-fluorobenzyl)oxy)-3-(octadecyloxy)propyl) hydrogen phosphate] |  | 450 nM |  | 79 nM | 1730 nM |  |  |  | 
10 | CCCCCCCCCCCCCCCCOC[C@H](COP(=O)(O)OC[C@H]1O[C@@](C#N)(c2ccc3c(N)ncnn23)[C@H](O)[C@@H]1O)OCc1cccc(C#N)c1 [Example 95, ((2R,3S,4R,5R)-5-(4-aminopyrrolo[2,1-f][1,2,4]triazin-7-yl)-5-cyano-3,4-dihydroxytetrahydrofuran-2-yl)methyl ((R)-2-((3-cyanobenzyl)oxy)-3-(hexadecyloxy)propyl) hydrogen phosphate] |  | 37 nM |  | 20 nM | 252 nM |  |  |  | 
11 | CCCCCCCCCCCCCCCCCCOC[C@H](COP(=O)(O)OC[C@H]1O[C@@](C#N)(c2ccc3c(N)ncnn23)[C@H](O)[C@@H]1O)OCc1cc(F)cc(C(F)(F)F)c1 [Example 19, ((2R,3S,4R,5R)-5-(4-aminopyrrolo[2,1-f][1,2,4]triazin-7-yl)-5-cyano-3,4-dihydroxytetrahydrofuran-2-yl)methyl ((R)-2-((3-fluoro-5-(trifluoromethyl)benzyl)oxy)-3-(octadecyloxy)propyl) hydrogen phosphate] | 182 nM | 2800 nM | 541 nM |  |  | 180 nM |  |  | 
12 | CCCCCCCCCCCCCCCCCCOC[C@H](COP(=O)(O)OC[C@H]1O[C@@](C#N)(c2ccc3c(N)ncnn23)[C@H](O)[C@@H]1O)Oc1cnc(C#N)nc1 [Example 82, ((2R,3S,4R,5R)-5-(4-aminopyrrolo[2,1-f][1,2,4]triazin-7-yl)-5-cyano-3,4-dihydroxytetrahydrofuran-2-yl)methyl ((R)-2-((2-cyanopyrimidin-5-yl)oxy)-3-(octadecyloxy)propyl) hydrogen phosphate] |  | 120 nM |  | 10 nM | 324 nM |  |  |  | 
13 | CCCCCCCCCCCCCCOC[C@H](COP(=O)(O)OC[C@H]1O[C@@](C#N)(c2ccc3c(N)ncnn23)[C@H](O)[C@@H]1O)OCc1cc(F)cc(C#N)c1 [Example 117, [(2R,3S,4R,5R)-5-(4-aminopyrrolo[2,1-f][1,2,4]triazin-7-yl)-5-cyano-3,4-dihydroxy-tetrahydrofuran-2-yl]methyl [(2R)-2-[(3-cyano-5-fluoro-phenyl)methoxy]-3-tetradecoxy-propyl] hydrogen phosphate] |  | 200 nM |  | 15 nM | 473 nM |  |  |  | 
14 | CCCCCCCCCCCCCCCCCCOC[C@](C)(COP(=O)(O)OC[C@H]1O[C@@](C#N)(c2ccc3c(N)ncnn23)[C@H](O)[C@@H]1O)OCc1ccccc1 [Example 21, ((2R,3S,4R,5R)-5-(4-aminopyrrolo[2,1-f][1,2,4]triazin-7-yl)-5-cyano-3,4-dihydroxytetrahydrofuran-2-yl)methyl ((R)-2-(benzyloxy)-2-methyl-3-(octadecyloxy)propyl) hydrogen phosphate] | 77 nM | 1740 nM | 50000 nM |  |  | 76 nM |  |  | 
15 | CCCCCCCCCCCCCCCCCCOC[C@H](COP(=O)(O)OC[C@H]1O[C@@](C#N)(c2ccc3c(N)ncnn23)[C@H](O)[C@@H]1O)Oc1ccccc1C#N [Example 73, ((2R,3S,4R,5R)-5-(4-aminopyrrolo[2,1-f][1,2,4]triazin-7-yl)-5-cyano-3,4-dihydroxytetrahydrofuran-2-yl)methyl ((R)-2-(2-cyanophenoxy)-3-(octadecyloxy)propyl) hydrogen phosphate] |  | 150 nM |  | 107 nM | 1200 nM |  |  |  | 
16 | CCCCCCCCCCCCCCCCCCOC[C@H](COP(=O)(O)OC[C@H]1O[C@@](C#N)(c2ccc3c(N)ncnn23)[C@H](O)[C@@H]1O)OCc1ccc(Cl)c(Cl)c1 [Example 48, ((2R,3S,4R,5R)-5-(4-aminopyrrolo[2,1-f][1,2,4]triazin-7-yl)-5-cyano-3,4-dihydroxytetrahydrofuran-2-yl)methyl ((R)-2-((3,4-dichlorobenzyl)oxy)-3-(octadecyloxy)propyl) hydrogen phosphate] | 78 nM | 10000 nM | 1610 nM |  |  | 78 nM |  |  | 
17 | CCCCCCCCCCCCCCCCCCOC[C@H](COP(=O)(O)OC[C@H]1O[C@@](C#N)(c2ccc3c(N)ncnn23)[C@H](O)[C@@H]1O)OCc1ccc(C#N)cn1 [Example 124, [(2R,3S,4R,5R)-5-(4-Aminopyrrolo[2,1-f][1,2,4]triazin-7-yl)-5-cyano-3,4-dihydroxy-tetrahydrofuran-2-yl]methyl [(2R)-2-[(5-cyano-2-pyridyl)methoxy]-3-octadecoxy-propyl] hydrogen phosphate] |  | 200 nM |  | 27 nM | 703 nM |  |  |  | 
